Patent US20120302566A1, “INDANYLOXYDIHYDROBENZOFURANYLACETIC ACIDS” (BOEHRINGER INGELHEIM INTERNATIONAL GMBH, priority 2010, published 2012)

Biological target: human GPR40 receptor (Homo sapiens, UniProt O14842)
Experiment: IP1 accumulation measurements using the IPOne assay system
Type: cell-based
Settings: IP1 accumulation (IPOne HTRF), 1 hour stimulation; 1321N1 cells stably expressing human GPR40; read-out: EC50 values on GPR40 determined as described in (B)
Protocol: (B) IP1 accumulation measurements using the IPOne assay system—1321N1 cells stably expressing human GPR40 receptor (Euroscreen, Belgium) were seeded 24 h before the assay in black clear-bottom collagen-coated 384-well plates in culture medium containing 10% FCS, 1% Na-Pyruvate and 400 μg/mL G418. IP1 is assayed according to the Manufacturer's description (Cisbio Bioassays, France). In brief, the assay is started by substitution of the culture medium by stimulation buffer (Hepes 10 mM, CaCl2 1 mM, MgCl2 0.5 mM, KCl 4.2 mM, NaCl 146 mM and glucose 5.5 mM, pH 7.4) without LiCl. Cells are stimulated for 1 hour at 37°, 10% CO2 by addition of the compounds that were diluted in stimulation buffer containing LiCl yielding a final LiCl concentration of 50 mM. Assays are stopped by adding HTRF-conjugates (IP1-d2 and Anti-IP1 cryptate Tb) and lysis buffer, provided by the manufacturer. After an incubation time of 1 hour at room temperature plates are measured using an EnVision™, Perkin Elmer.

Sequence of human GPR40 receptor (O14842 whole entry): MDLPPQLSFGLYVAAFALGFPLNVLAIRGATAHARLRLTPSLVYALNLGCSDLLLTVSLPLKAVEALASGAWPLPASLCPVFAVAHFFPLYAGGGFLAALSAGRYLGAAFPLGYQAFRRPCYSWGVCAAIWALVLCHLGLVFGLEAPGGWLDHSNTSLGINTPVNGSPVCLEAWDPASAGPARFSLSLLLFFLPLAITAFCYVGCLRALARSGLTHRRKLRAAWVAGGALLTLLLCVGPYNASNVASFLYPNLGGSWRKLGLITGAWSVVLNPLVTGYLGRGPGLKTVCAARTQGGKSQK

Compound | EC50 [µM]
CC1=C(c2cccc3c2CC[C@H]3Oc2ccc3c(c2)OC[C@H]3CC(=O)O)C(C)(C)CCC1 [Example 48, {(S)-6-[(R)-4-(2,6,6-Trimethyl-cyclohex-1-enyl)-indan-1-yloxy]-2,3-dihydro-benzofuran-3-yl}-acetic acid] | 0.016
COc1ccc(C)c(-c2cccc3c2CC[C@H]3Oc2ccc3c(c2)OC[C@H]3CC(=O)O)c1 [Example 71, {(S)-6-[(R)-4-(5-Methoxy-2-methyl-phenyl)-indan-1-yloxy]-2,3-dihydro-benzofuran-3-yl}-acetic acid] | 0.071
O=C(O)C[C@@H]1COc2cc(O[C@@H]3CCc4c3ccc(F)c4Cl)ccc21 [Example 44, {(S)-6-[(R)-4-Chloro-5-fluoro-indan-1-yloxy]-2,3-dihydro-benzofuran-3-yl}-acetic acid] | 0.025
COC(C)(c1cccc2c1CC[C@H]2Oc1ccc2c(c1)OC[C@H]2CC(=O)O)C(C)(C)C (stereo partly drawn) [Example 78, {(S)-6-[(R)-4-(1-Methoxy-1,2,2-trimethyl-propyl)-indan-1-yloxy]-2,3-dihydro-benzofuran-3-yl}-acetic acid] | 0.076
Cc1ccccc1-c1cccc2c1CC[C@H]2Oc1ccc2c(c1)OC[C@H]2CC(=O)O [Example 62, {(S)-6-[(R)-4-o-Tolyl-indan-1-yloxy]-2,3-dihydro-benzofuran-3-yl}-acetic acid] | 0.052
COc1ccc(C(F)(F)F)c(-c2cccc3c2CC[C@H]3Oc2ccc3c(c2)OC[C@H]3CC(=O)O)n1 [Example 91, {(S)-6-[(R)-4-(6-Methoxy-3-trifluoromethyl-pyridin-2-yl)-indan-1-yloxy]-2,3-dihydro-benzofuran-3-yl}-acetic acid] | 0.069
COC(c1cccc2c1CC[C@H]2Oc1ccc2c(c1)OC[C@H]2CC(=O)O)C(C)(C)C (mixture of isomers) [Example 27, {(S)-6-[(R)-4-(1-Methoxy-2,2-dimethyl-propyl)-indan-1-yloxy]-2,3-dihydro-benzofuran-3-yl}-acetic acid] | 0.023
Cc1cc2c(cc1O[C@@H]1CCc3c1cccc3C(F)(F)F)OCC2CC(=O)O (mixture of isomers) [Example 107, {5-Methyl-6-[(R)-4-trifluoromethyl-indan-1-yloxy]-2,3-dihydro-benzofuran-3-yl}-acetic acid] | 6.05
O=C(O)C[C@@H]1COc2cc(O[C@@H]3CCc4c(C5=CCCC56CCOCC6)cccc43)ccc21 [Example 47, {(S)-6-[(R)-4-(8-Oxa-spiro[4.5]dec-1-en-1-yl)-indan-1-yloxy]-2,3-dihydro-benzofuran-3-yl}-acetic acid] | 0.071
CC1OC(c2cccc3c2CC[C@H]3Oc2ccc3c(c2)OC[C@H]3CC(=O)O)C1(C)C (single isomer, unassigned) [Example 41] | 0.323
Cc1cccc(C)c1-c1ccc2c(c1)CC[C@H]2Oc1ccc2c(c1)OC[C@H]2CC(=O)O [Example 52, {(S)-6-[(R)-5-(2,6-Dimethyl-phenyl)-indan-1-yloxy]-2,3-dihydro-benzofuran-3-yl}-acetic acid] | 0.113
O=C(O)C[C@@H]1COc2cc(O[C@@H]3CCc4cc(Cl)ccc43)ccc21 [Example 21, {(S)-6-[(R)-5-Chloro-indan-1-yloxy]-2,3-dihydro-benzofuran-3-yl}-acetic acid] | 0.054
CC1(c2cccc3c2CC[C@H]3Oc2ccc3c(c2)OC[C@H]3CC(=O)O)CC1 [Example 87, {(S)-6-[(R)-4-(1-Methyl-cyclopropyl)-indan-1-yloxy]-2,3-dihydro-benzofuran-3-yl}-acetic acid] | 0.064
CC1(C)CCC[C@@H]1c1cccc2c1CC[C@H]2Oc1ccc2c(c1)OC[C@H]2CC(=O)O (single isomer, unassigned) [Example 75] | 0.039
CC1(C)CCCC=C1c1cccc2c1CC[C@H]2Oc1ccc2c(c1)OC[C@H]2CC(=O)O [Example 70, {(S)-6-[(R)-4-(6,6-Dimethyl-cyclohex-1-enyl)-indan-1-yloxy]-2,3-dihydro-benzofuran-3-yl}-acetic acid] | 0.008
CO[C@@H](c1cccc2c1CC[C@H]2Oc1ccc2c(c1)OC[C@H]2CC(=O)O)C(C)(C)C (single isomer, unassigned) [Example 28, {(S)-6-[(R)-4-((R)*-1-Methoxy-2,2-dimethyl-propyl)-indan-1-yloxy]-2,3-dihydro-benzofuran-3-yl}-acetic acid] | 0.025
Cc1noc(C)c1-c1cccc2c1CC[C@H]2Oc1ccc2c(c1)OC[C@H]2CC(=O)O [Example 74, {(S)-6-[(R)-4-(3,5-Dimethyl-isoxazol-4-yl)-indan-1-yloxy]-2,3-dihydro-benzofuran-3-yl}-acetic acid] | 0.327

Compound | EC50 [µM]
CC(O)(c1cccc2c1CC[C@H]2Oc1ccc2c(c1)OC[C@H]2CC(=O)O)C1CCOCC1 (stereo partly drawn) [Example 81, ((S)-6-{(R)-4-[1-Hydroxy-1-(tetrahydro-pyran-4-yl)-ethyl]-indan-1-yloxy}-2,3-dihydro-benzofuran-3-yl)-acetic acid] | 1.54
COc1cc(C)c(-c2cccc3c2CC[C@H]3Oc2ccc3c(c2)OC[C@H]3CC(=O)O)c(C)n1 [Example 64, {(S)-6-[(R)-4-(6-Methoxy-2,4-dimethyl-pyridin-3-yl)-indan-1-yloxy]-2,3-dihydro-benzofuran-3-yl}-acetic acid] | 0.213
N#Cc1cccnc1-c1cccc2c1CC[C@H]2Oc1ccc2c(c1)OC[C@H]2CC(=O)O [Example 46, {(S)-6-[(R)-4-(3-Cyano-pyridin-2-yl)-indan-1-yloxy]-2,3-dihydro-benzofuran-3-yl}-acetic acid] | 0.982
Cc1cccc(C)c1-c1cccc2c1CC[C@H]2Oc1ccc2c(c1)OC[C@H]2CC(=O)O [Example 33, {(S)-6-[(R)-4-(2,6-Dimethyl-phenyl)-indan-1-yloxy]-2,3-dihydro-benzofuran-3-yl}-acetic acid] | 0.004
O=C(O)C[C@@H]1COc2cc(O[C@@H]3CCc4c3ccc(C(F)(F)F)c4Cl)ccc21 [Example 98, {(S)-6-[(R)-4-Chloro-5-trifluoromethyl-indan-1-yloxy]-2,3-dihydro-benzofuran-3-yl}-acetic acid] | 0.046
O=C(O)C[C@@H]1COc2cc(O[C@@H]3CCc4c3cccc4C(F)(F)C(F)(F)F)ccc21 [Example 101, {(S)-6-[(R)-4-Pentafluoroethyl-indan-1-yloxy]-2,3-dihydro-benzofuran-3-yl}-acetic acid] | 0.025
Cc1cc2c(c(C(F)(F)F)c1)CC[C@H]2Oc1ccc2c(c1)OC[C@H]2CC(=O)O [Example 26, {(S)-6-[(R)-6-Methyl-4-trifluoromethyl-indan-1-yloxy]-2,3-dihydro-benzofuran-3-yl}-acetic acid] | 0.019
O=C(O)C[C@@H]1COc2cc(O[C@H]3CCc4ccc(C(F)(F)F)cc43)ccc21 [Example 50, {(S)-6-[(S)-6-Trifluoromethyl-indan-1-yloxy]-2,3-dihydro-benzofuran-3-yl]-acetic acid] | 2.97
COC(C)(C)C(F)(F)c1cccc2c1CC[C@H]2Oc1ccc2c(c1)OC[C@H]2CC(=O)O [Example 84, {(S)-6-[(R)-4-(1,1-Difluoro-2-methoxy-2-methyl-propyl)-indan-1-yloxy]-2,3-dihydro-benzofuran-3-yl}-acetic acid] | 0.117
CC(O)(c1cccc2c1CC[C@H]2Oc1ccc2c(c1)OC[C@H]2CC(=O)O)C(F)(F)F (stereo partly drawn) [Example 89, {(S)-6-[(R)-4-(2,2,2-Trifluoro-1-hydroxy-1-methyl-ethyl)-indan-1-yloxy]-2,3-dihydro-benzofuran-3-yl}-acetic acid] | 0.428
COc1ncc(C)c(-c2cccc3c2CC[C@H]3Oc2ccc3c(c2)OC[C@H]3CC(=O)O)c1C [Example 60, {(S)-6-[(R)-4-(2-Methoxy-3,5-dimethyl-pyridin-4-yl)-indan-1-yloxy]-2,3-dihydro-benzofuran-3-yl}-acetic acid] | 0.051
O=C(O)C[C@@H]1COc2cc(O[C@@H]3CCc4c(C5=CCCCC56CCOCC6)cccc43)ccc21 [Example 56, {(S)-6-[(R)-4-(3-Oxa-spiro[5.5]undec-7-en-7-yl)-indan-1-yloxy]-2,3-dihydro-benzofuran-3-yl}-acetic acid] | 0.124
COc1cc(-c2cccc3c2CC[C@H]3Oc2ccc3c(c2)OC[C@H]3CC(=O)O)c(F)cn1 [Example 68, {(S)-6-[(R)-4-(5-Fluoro-2-methoxy-pyridin-4-yl)-indan-1-yloxy]-2,3-dihydro-benzofuran-3-yl}-acetic acid] | 0.359
Cc1ccc(C(F)(F)F)c2c1[C@H](Oc1ccc3c(c1)OC[C@H]3CC(=O)O)CC2 [Example 30, {(S)-6-[(R)-7-Methyl-4-trifluoromethyl-indan-1-yloxy]-2,3-dihydro-benzofuran-3-yl}-acetic acid] | 0.302
O=C(O)C[C@@H]1COc2cc(O[C@@H]3CCc4c(-c5ccccc5C(F)(F)F)cccc43)ccc21 [Example 69, {(S)-6-[(R)-4-(2-Trifluoromethyl-phenyl)-indan-1-yloxy]-2,3-dihydro-benzofuran-3-yl}-acetic acid] | 0.088
Cc1cc(=O)n(C)c(C)c1-c1cccc2c1CC[C@H]2Oc1ccc2c(c1)OC[C@H]2CC(=O)O [Example 63, {(S)-6-[(R)-4-(1,2,4-Trimethyl-6-oxo-1,6-dihydro-pyridin-3-yl)-indan-1-yloxy]-2,3-dihydro-benzofuran-3-yl}-acetic acid] | 3.15
